Source: the NIST ThermoML archive (doi:10.1016/j.tca.2015.02.014)

Assay: mn = molality of the nth substance listed, in mol/kg
Details: 100 kPa, Liquid; for viscosity: Capillary tube (Ostwald / Ubbelohde) method; for speed of sound: Frequency=3 MHz, Sing-around technique in a fixed-path interferometer; for mass density: Vibrating tube method

C[C@H](CCC(=O)[O-])[C@H]1CC[C@H]2[C@@H]3[C@H](O)C[C@@H]4C[C@H](O)CC[C@]4(C)[C@H]3C[C@H](O)[C@]12C.[Na+] [sodium cholate] + O
Details	mass density [kg/m3]	speed of sound [m/s]	viscosity [mPa·s]
293.15 K, m1 = 0.001	998.33	1483	1.003
293.15 K, m1 = 0.002	998.422	1483.3	1.004
293.15 K, m1 = 0.003	998.533	1483.6	1.005
293.15 K, m1 = 0.004	998.618	1483.8	1.007
293.15 K, m1 = 0.006	998.805	1484.4	1.011
293.15 K, m1 = 0.008	999.003	1485	1.016
293.15 K, m1 = 0.01	999.241	1485.8	1.021
293.15 K, m1 = 0.014	999.685	1486.9	1.033
293.15 K, m1 = 0.018	1000.14	1487.9	1.041
293.15 K, m1 = 0.022	1000.59	1488.8	1.048
293.15 K, m1 = 0.026	1001	1489.7	1.056
293.15 K, m1 = 0.03	1001.44	1490.2	1.063
298.15 K, m1 = 0.001	997.158	1497	0.8906
298.15 K, m1 = 0.002	997.267	1497.3	0.8925
298.15 K, m1 = 0.003	997.369	1497.6	0.8939
298.15 K, m1 = 0.004	997.455	1497.9	0.8955
298.15 K, m1 = 0.006	997.635	1498.4	0.8987
298.15 K, m1 = 0.008	997.835	1499.1	0.902
298.15 K, m1 = 0.01	998.035	1499.7	0.9055
298.15 K, m1 = 0.014	998.454	1500.8	0.9168
298.15 K, m1 = 0.018	998.905	1501.7	0.9239
298.15 K, m1 = 0.022	999.354	1502.6	0.9315
298.15 K, m1 = 0.026	999.746	1503.4	0.9373
298.15 K, m1 = 0.03	1000.14	1504	0.9429
303.15 K, m1 = 0.001	995.785	1509.5	0.798
303.15 K, m1 = 0.002	995.901	1509.8	0.7991
303.15 K, m1 = 0.003	996.001	1510	0.7999
303.15 K, m1 = 0.004	996.102	1510.2	0.8022
303.15 K, m1 = 0.006	996.301	1510.7	0.8047
303.15 K, m1 = 0.008	996.513	1511.3	0.8075
303.15 K, m1 = 0.01	996.724	1511.8	0.8105
303.15 K, m1 = 0.014	997.167	1512.8	0.8215
303.15 K, m1 = 0.018	997.524	1513.8	0.8281
303.15 K, m1 = 0.022	997.945	1514.6	0.8321
303.15 K, m1 = 0.026	998.31	1515.4	0.838
303.15 K, m1 = 0.03	998.815	1516.1	0.8429
308.15 K, m1 = 0.001	994.145	1520.2	0.7202
308.15 K, m1 = 0.002	994.255	1520.5	0.7212
308.15 K, m1 = 0.003	994.348	1520.7	0.7225
308.15 K, m1 = 0.004	994.455	1520.9	0.7241
308.15 K, m1 = 0.006	994.7	1521.4	0.7265
308.15 K, m1 = 0.008	994.885	1522	0.7295
308.15 K, m1 = 0.01	995.101	1522.4	0.7323
308.15 K, m1 = 0.014	995.521	1523.4	0.7415
308.15 K, m1 = 0.018	995.957	1524.2	0.7461
308.15 K, m1 = 0.022	996.357	1525	0.7509
308.15 K, m1 = 0.026	996.744	1525.8	0.7561
308.15 K, m1 = 0.03	997.176	1526.4	0.7619
313.15 K, m1 = 0.001	992.351	1529.3	0.6535
313.15 K, m1 = 0.002	992.449	1529.6	0.6544
313.15 K, m1 = 0.003	992.547	1529.8	0.6556
313.15 K, m1 = 0.004	992.655	1530	0.6571
313.15 K, m1 = 0.006	992.873	1530.4	0.6595
313.15 K, m1 = 0.008	993.087	1530.9	0.662
313.15 K, m1 = 0.01	993.304	1531.3	0.6648
313.15 K, m1 = 0.014	993.711	1532.3	0.6722
313.15 K, m1 = 0.018	994.126	1533.1	0.6772
313.15 K, m1 = 0.022	994.505	1533.9	0.6813
313.15 K, m1 = 0.026	994.935	1534.6	0.6865
313.15 K, m1 = 0.03	995.354	1535.2	0.6918
318.15 K, m1 = 0.001	990.351	1536.9	0.5973
318.15 K, m1 = 0.002	990.445	1537.2	0.5985
318.15 K, m1 = 0.003	990.539	1537.3	0.5997
318.15 K, m1 = 0.004	990.629	1537.5	0.6013
318.15 K, m1 = 0.006	990.864	1537.9	0.6035
318.15 K, m1 = 0.008	991.051	1538.3	0.6062
318.15 K, m1 = 0.01	991.257	1538.7	0.609
318.15 K, m1 = 0.014	991.671	1539.5	0.6161
318.15 K, m1 = 0.018	992.088	1540.4	0.6201
318.15 K, m1 = 0.022	992.491	1541.2	0.6245
318.15 K, m1 = 0.026	992.905	1541.9	0.6291
318.15 K, m1 = 0.03	993.313	1542.5	0.6328
